Where a SMILES comes first, the peptide text is derived from it.
## CCNC(=O)C1(O)C(C)CC2C3CCC4=CC(=O)C=CC4(C)C3(F)C(O)CC21C (stereo not given)
  logP: 2.07

## O=C(NCCO)C(F)(F)Cn1cnc([N+](=O)[O-])n1
  logP: -0.77

## N#CC(C#N)=NNc1ccccc1Br
  logP: 3.11

## C#CCON=CNc1cc(Cl)c(OCC#C)c(Cl)c1
  logP: 3.3

## CCOC(=S)NCCn1c([N+](=O)[O-])cnc1C
  logP: 1.5

## Cc1cccc(OCCO)c1
  logP: 1.76

## CC(C)CNC(=O)C1(O)C(C)CC2C3CCC4=CC(=O)C=CC4(C)C3(F)C(O)CC21C (stereo not given)
  logP: 3.01

## CC(=O)NC(CCC(=O)O)C(N)=O (stereo not given)
  logP: -2.47

## CS(=O)(=O)N(c1ccccc1[N+](=O)[O-])S(C)(=O)=O
  logP: 0.81

## CCN1C(=O)C(=O)c2c(OC)cccc2C1=O
  logP: 0.9

## COCCCNC(=S)C(F)(F)Cn1cnc([N+](=O)[O-])n1
  logP: 1.1

## CC1(C)SC2C(NC(=O)c3c(-c4c(F)cccc4Cl)noc3CO)C(=O)N2C1C(=O)O (stereo not given)
  logP: 2.23

## COCCN1CCc2cccc(Cl)c2CC1
  logP: 3

## CC1(C)COC(Cn2cncn2)(c2ccc(-n3ccnc3)cc2Cl)OC1
  logP: 2.26

## Cn1ccc(=O)c2ccccc21
  logP: 0.44

## COCCNC(=O)C(F)(F)Cn1cnc([N+](=O)[O-])n1
  logP: -0.15

## Cc1ccc(Cl)c(OCC(O)CNC(C)(C)C)c1 (stereo not given)
  logP: 2.97

## CS(=O)(=O)CCOCn1ccnc1C=NO
  logP: -0.84

## C#CCOc1c(Cl)cc(NC=NOCC=CCl)cc1Cl
  logP: 3.9

## O=C(N/N=C/c1ccc[nH]1)Nc1ccccc1
  logP: 2.96

## Cc1ncnc2c1ncn2C1CCC(CO)O1 (stereo not given)
  logP: -0.12

## Sc1nc(-c2ccccc2)ns1
  logP: 2.13

## O=C1NC(=O)C(=O)C(=O)N1
  logP: -1.84

## O=C(Cn1ccnc1[N+](=O)[O-])NCCCCO
  logP: -0.74

## O=P([O-])(Oc1ccc(Cl)cc1)Oc1ccc(Cl)cc1
  logP: 2.64

## ClC1CC(Cl)C(Cl)CC1Cl (stereo not given)
  logP: 2.82

## C#CCOc1c(Cl)cc(NC=NOCCCC)cc1Cl
  logP: 4.4

## CCc1nc(C)c([N+](=O)[O-])[nH]1
  logP: 0.76

## COC(O)Cn1c(Br)cnc1[N+](=O)[O-] (stereo not given)
  logP: 0.16

## CCC(C)C(NC(C)=O)C(=O)NC(CC(C)C)C(=O)NC(CC(=O)O)C(N)=O (stereo not drawn) (Ac-Ile-Leu-Asp-NH2; configuration not given here)
  logP: -0.04

## CCC1COC(Cn2cncn2)(c2ccc(C(=N)N)cc2)O1 (stereo not given)
  logP: 0.85

## Cc1nc2sccn2c(=O)c1CCN1CCC(=C(c2ccc(F)cc2)c2ccc(F)cc2)CC1
  logP: 5.2

## O=[N+]([O-])C=C1NCCN1Cc1cnc(Cl)s1
  logP: -0.04

## Clc1cc2c(c(Cl)c1Cl)Oc1ccc(Cl)c(Cl)c1O2
  logP: 6.74

## CCN(CC)Cc1ccc(C(=O)Nc2ccccc2C)cc1
  logP: 3.31

## C#CCOc1c(Cl)cc(NC=NOCCOCC)cc1Cl
  logP: 3.7

## CCN(CC)C(=O)COC(=O)C(C)c1ccc2cc(OC)ccc2c1 (stereo not given)
  logP: 3.32

## CCC(=O)C(CS(=O)(=O)c1ccccc1)c1ccc(Cl)cc1 (stereo not given)
  logP: 2.69

## CCCC(=O)OC(C(=O)NC1C(=O)N2C(C(=O)O)=C(C)CSC12)c1ccccc1 (stereo not given)
  logP: 1.89

## CCOc1ccc(C2(C(=O)OC)CC2(Cl)Cl)cc1 (stereo not given)
  logP: 4.1

## CCCCC(NC(Cc1ccccc1)C(=O)N1CCC(OCOC)CC1)C(=O)NC(CC1CCCCC1)C(O)CC(C(=O)NCCC[N+]1([O-])CCOCC1)C(C)C (stereo not given)
  logP: 3.6

## CCCCCC(NC(C)=O)C(=O)OC (stereo not given)
  logP: 1.28

## Cn1cc(-c2ccccc2)c(=O)c(-c2cccc(C(F)(F)F)c2)c1
  logP: 3.16

## OCC1COC(Cn2cncn2)(c2ccc(Cl)cc2Cl)O1 (stereo not given)
  logP: 1.76

## CCOC(=O)CCC(C)n1nc2ccccc2n1 (stereo not given)
  logP: 3.05

## Cc1[nH]cnc1CSCCNC1=NC(=O)CN1
  logP: -0.5

## CCCCCCCOc1ccc(NC(=O)OCCN2CCOCC2)cc1
  logP: 4.96

## O=C(O)c1cccc2cccc(C(=O)O)c12
  logP: 1.98

## Cc1cccc(C)c1NC(=O)CN1CCN(CCCC(c2ccc(F)cc2)c2ccc(F)cc2)CC1
  logP: 5.6

## C[Si](C)(C)C
  logP: 3.24

## O=c1nc(N=CN2CCOCC2)ccn1C1CC(O)C(CO)O1 (stereo not given)
  logP: -1.54

## O=Cn1c2c(c3ccccc31)CCNC2
  logP: 0.26

## [N-]=[N+]=CC(=O)NCC(=O)N1CCOCC1
  logP: -0.47

## COC(=O)c1ccc(OCC(OC(=O)n2ccnc2)C(C)(C)C)cc1 (stereo not given)
  logP: 3.59

## O=C(Cn1c(=O)sc2ccc(Cl)cc21)N1CCN(CCOS(=O)(=O)O)CC1
  logP: -1.47

## c1ccc(OCc2cccc(CN3CCCC3)c2)cc1
  logP: 3.75

## c1ccc2c(c1)Cc1ccccc1S2
  logP: 3.86

## CC(C)(C)N(NC(=O)c1cccc(F)c1)C(=O)c1ccccc1Cl
  logP: 2.88

## C1CC2=NOS3=C2C(=NO3)C1
  logP: 1.1

## O=S(=O)(NCc1ccccc1)C(F)(F)F
  logP: 2.91

## Cc1ccccc1C(=O)NN(C(=O)c1ccccc1Cl)C(C)(C)C
  logP: 2.91

## NC(COCc1cccnc1)C(=O)O (stereo not given)
  logP: -2.44

## CCOC(=O)Oc1cccc(C2(C(=O)CC)CCN(C)CC2)c1
  logP: 1.29

## Nc1nc(Cl)nc2c1ncn2C1OC(CO)C(O)C1O (stereo not given)
  logP: -0.37

## CCCCCc1cc(OCc2ccc(-c3ccccc3)cc2)c2c(c1)OC(C)(C)C1CC=C(C)CC21 (stereo not given)
  logP: 10.9

## Nc1c2ncn(C3OC(CO)CC3F)c2nc[n+]1[O-] (stereo not given)
  logP: -1.38

## CCOC(=O)c1ccc(N=NN(C)C)cc1
  logP: 3.66

## O=c1cc[nH]cc1
  logP: -1.3

## CCOC(=O)c1cc(S(N)(=O)=O)c(Cl)cc1NCc1ccco1
  logP: 2.67

## Clc1cc(-c2c(Cl)c(Cl)c(Cl)c(Cl)c2Cl)c(Cl)c(Cl)c1Cl
  logP: 9.14

## C#CCNC(=O)C1(O)C(C)CC2C3CCC4=CC(=O)C=CC4(C)C3(F)C(O)CC21C (stereo not given)
  logP: 2

## Nc1nc(Cl)c2ncn(C3OC(CO)CC3F)c2n1 (stereo not given)
  logP: 0.28

## CC(C)(C)c1ccc2c(c1)OCCOCCOCCOCCO2
  logP: 2.26

## CO[C@@]1(NC(=O)C(C(=O)O)c2ccc(O)cc2)C(=O)N2C(C(=O)O)=C(CSc3nnnn3C)CO[C@@H]21 (stereo not given in full)
  logP: -0.58

## O=c1cc2ccccc2n[nH]1
  logP: 0.68

## CCCSP(=O)(OCC)Oc1cnn(-c2ccc(Cl)cc2)c1 (stereo not given)
  logP: 3.77

## Cc1cccc(C)c1NC(=O)c1cccc(CN2CCCCC2)c1
  logP: 3.47

## C#CCOc1c(Cl)cc(NC=NOCC=C)cc1Cl
  logP: 3.7

## O=C(NN1CCCCC1)NS(=O)(=O)c1ccc(Cl)cc1
  logP: 0.84

## CCN1C(=O)C(=O)c2c(C#N)cccc2C1=O
  logP: 0.41

## Cc1ccc(Cl)c(Cl)c1Cl
  logP: 4.56

## Cc1[nH]cnc1CSCCNc1cc(=O)cc[nH]1
  logP: 0.8

## CC1(c2ccc(F)cc2)OC2CC3C4CCC5=CC(=O)CCC5C4CCC3(C)C2(C(=O)CO)O1 (stereo not given)
  logP: 4.92

## C#CCOc1c(Cl)cc(NC=NOc2ccc(C)cc2)cc1Cl
  logP: 4.8

## Clc1ccc(-c2c(Cl)c(Cl)c(Cl)c(Cl)c2Cl)cc1
  logP: 7.31

## COc1ccc2ccc(=O)oc2c1
  logP: 1.74

## CNC(=O)OCc1ccc(Cl)cc1
  logP: 2.42

## NS(=O)(=O)c1cc(C(=O)O)cc(N2CCCC2)c1Oc1ccccc1
  logP: 3.92

## CCCCCC(=O)OCCOCn1cnc2c(=O)[nH]c(N)nc21
  logP: 0.93

## CCN1C(=O)C(=O)c2cc(OC)c(OC)cc2C1=O
  logP: 1.31

## COCCCNC(=O)C(F)(F)Cn1cnc([N+](=O)[O-])n1
  logP: 0.01

## CN(C)c1ccc2c(c1)C(=O)N(OS(C)(=O)=O)C2=O
  logP: 1.65

## O=C(Cc1ccccc1)NCCNCC(O)COCc1ccccc1 (stereo not given)
  logP: 1.45

## Cc1nccc2c1[nH]c1ccccc12
  logP: 3.1

## COc1cccc(NC(=O)OCCN2CCOCC2)c1
  logP: 2.19

## CC(C)(C)C(COc1ccc(C(F)(F)F)cc1)OC(=O)n1ccnc1 (stereo not given)
  logP: 4.15

## CC(C)CC(C)CC(C)OC(=O)c1ccc(NC(=O)N(C)C)cc1Cl (stereo not given)
  logP: 5.15

## CCCN(C=Nc1ccn(C2OC(CO)C(O)C2O)c(=O)n1)CCC (stereo not given)
  logP: 0.24

## CCCCCCOc1ccc(NC(=O)OCCN2CCOCC2)cc1
  logP: 4.51

## CC1CC2C3CCC4=CC(=O)C=CC4(C)C3(F)C(O)CC2(C)C1(O)C(=O)NCc1ccccc1 (stereo not given)
  logP: 3.28

## C#CCOc1c(Cl)cc(NC=NOC)cc1Cl
  logP: 3.3

## C#CCCOCn1ccnc1C=NO
  logP: 0.67

## c1ccc(Cn2cccc2)cc1
  logP: 2.71

## CN1CC(O)N(c2nnc(C(C)(C)C)s2)C1=O (stereo not given)
  logP: 1.49

## COC(=O)CCCCC(S)CCS (stereo not given)
  logP: 2.27

## CCC(=O)OC1(c2ccccc2)CCN(C)C(C)C1C (stereo not given)
  logP: 3.13

## COc1ncnc2c1ncn2C1OC(CO)CC1F (stereo not given)
  logP: 0.25

## Cc1cccc(C)c1N
  logP: 1.84

## O=Cc1ccc(O)c2ncccc12
  logP: 1.63

## CCN1C(=O)NC(=O)C(=O)C1=O
  logP: -0.32

## CCn1cc(C(=O)O)c(=O)c2ccc(C)nc21
  logP: 1.59

## COc1cc(C)c2c(c1OC)-c1ccc(OC)c(=O)cc1C(NC(=O)c1ccc([N+](=O)[O-])cc1)CC2 (stereo not given)
  logP: 2.96

## O=[N+]([O-])c1cnc(C=Cc2ccccc2)n1CCO
  logP: 2.25

## CC(C)OC(=O)c1cnc2n(c1=O)C(C)CCC2 (stereo not given)
  logP: 0.99

## Cn1nnnc1SCC1=C(C(=O)OCOC(=O)C(C)(C)C)N2C(=O)C(NC(=O)Cc3csc(N)n3)C2SC1 (stereo not given)
  logP: 1.36

## ON=Cc1nnc(-c2ccccc2)o1
  logP: 2.03

## CNC(=C[N+](=O)[O-])NCCSCc1nccs1
  logP: -0.15

## CCC(=O)C(CS(=O)(=O)c1ccc(C)cc1)c1ccc(OC)cc1 (stereo not given)
  logP: 2.47

## CNC(=NC#N)Nc1cccc(-c2csc(N=C(N)N)n2)c1
  logP: 1.6

## C[C@H]1OC(O[C@H]2[C@@H](O)CC(O[C@H]3[C@@H](O)CC(O[C@H]4CC[C@@]5(C)[C@H](CC[C@@H]6[C@@H]5CC[C@]5(C)[C@@H](C7=CC(=O)OC7)[C@@H](OC=O)C[C@]65O)C4)O[C@@H]3C)O[C@@H]2C)C[C@H](O)[C@@H]1O (stereo not given in full)
  logP: 2.04

## Cc1cn(C2CC(N=[N+]=[N-])C(COC(=O)CNC(=O)C34CC5CC(CC(C5)C3)C4)O2)c(=O)[nH]c1=O (stereo not given)
  logP: 2.1

## COCC(F)Cn1cnc([N+](=O)[O-])n1 (stereo not given)
  logP: -0.04

## CNC(=O)C(Cc1ccc(O)cc1)NC(C)=O (stereo not given)
  logP: -0.32

## Cc1nc([N+](=O)[O-])c(Br)n1C
  logP: 0.44

## COC(=O)c1ccc2[nH]ccc2c1
  logP: 2.58

## O=C(NCCCO)C(F)(F)Cn1cnc([N+](=O)[O-])n1
  logP: -0.63

## O=C(Cn1ccnc1[N+](=O)[O-])NCCCO
  logP: -1.27

## CCCOC(=O)C(C(=O)OC)=C1SC=CS1
  logP: 2.72

## Clc1cc2c(cc1Cl)Oc1c(cc(Cl)c(Cl)c1Cl)O2
  logP: 6.64

## CCC(=O)c1ccc2c(c1)N(CC(C)N(C)C)c1ccccc1S2 (stereo not given)
  logP: 4.79

Reference: the OPERA property sets (Mansouri et al. 2018)
